Like-named read-outs stand apart in the source and are kept apart here.
How the values were obtained:
Type in all cases: in vivo
Nocardia sp = experiment: Control of Nocardia sp disease in tobacco (N-Nt); settings: 1 μM spraying every 24 hours for one week, water control 58
Procedure, shortened: (§1)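 Each group of fifty plants is inoculated with the pathogen and afterwards sprayed with 1 μM compound once every 24 hours over one week. Water-sprayed plants serve as the control. Disease is scored as mortality (Nocardia), symptomatic leaf percentage (Alternaria) or lesion size by diameter (Botrytis).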

Phytophthora parasitica = experiment: Control of Phytophthora parasitica disease in tobacco (Pp-Nt); settings: 1 μM spraying every 24 hours for one week, water control 91
Rhizoctonia solani [1] = experiment: Control of Rhizoctonia solani disease in tobacco (Rs-Nt); settings: 1 μM spraying every 24 hours for one week, water control 87
Pratylenchus coffeae = experiment: Nematode control, nodules per plant: Pratylenchus coffeae; settings: 1 μM foliar application every 5 days, evaluation 35 days after, control 42
Procedure, shortened: (§2)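 Foliar application at 1 μM; spraying every 5 days; n = 10 plants/treatment; nodules/plant scored day 35.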

Alternaria solani = experiment: Control of Alternaria solani disease in tomato (As-SI); settings: 1 μM spraying every 24 hours for one week, water control 68
Procedure, shortened: as §1

Meloidogyne incognita = experiment: Nematode control, nodules per plant: Meloidogyne incognita; settings: 1 μM foliar application every 5 days, evaluation 35 days after, control 34
Procedure, shortened: as §2

[2] = system: Candidatus 'Liberibacter asiaticus'; settings: spraying every 15 days, 12 months after treatment, Citrus sinensis with HLB
Rhizoctonia solani [3] = experiment: Control of Rhizoctonia solani disease in tomato (Rs-SI); settings: 1 μM spraying every 24 hours for one week, water control 96
Radopholus similis = experiment: Nematode control, nodules per plant: Radopholus similis; settings: 1 μM foliar application every 5 days, evaluation 35 days after, control 45
Procedure, shortened: as §2

Botrytis cinerea [4] = experiment: Control of Botrytis cinerea disease in tobacco (Bc-Nt); settings: 1 μM spraying every 24 hours for one week, water control 6.7
Procedure, shortened: as §1

Botrytis cinerea [5] = experiment: Control of Botrytis cinerea disease in tomato (Bc-SI); settings: 1 μM spraying every 24 hours for one week, water control 7.4
Procedure, shortened: as §1

Botrytis cinerea [6] = experiment: Control of Botrytis cinerea disease in Arabidopsis (Bc-At); settings: 1 μM spraying every 24 hours for one week, water control 8.7
Procedure, shortened: as §1

Row | Structure (SMILES) | N-Nt: percentage of mortality (Nocardia sp) [%] | Pp-Nt: percentage of mortality (Phytophthora parasitica) [%] | Rs-Nt: percentage of mortality (Rhizoctonia solani [1]) [%] | Pc: number of nodules per plant (Pratylenchus coffeae) | As-SI: percentage of leaves with the disease symptoms (Alternaria solani) [%] | Mi: number of nodules per plant (Meloidogyne incognita) | Titers of the bacterium ([2]; 0.001 μM) [copies per reaction] | Titers of the bacterium ([2]; 0.01 μM) [copies per reaction] | Titers of the bacterium ([2]; 1 μM) [copies per reaction] | Titers of the bacterium ([2]; 5 μM) [copies per reaction] | Titers of the bacterium ([2]; 10 μM) [copies per reaction] | Rs-SI: percentage of mortality (Rhizoctonia solani [3]) [%] | Rs: number of nodules per plant (Radopholus similis) | Bc-Nt: mean of the diameter of the lesion (Botrytis cinerea [4]) [mm] | Bc-SI: mean of the diameter of the lesion (Botrytis cinerea [5]) [mm] | Bc-At: mean of the diameter of the lesion (Botrytis cinerea [6]) [mm]
1 | CNC(=O)c1ccc2c(c1)N(C)C(CC(=O)NC(CO)CO)CO2 (stereo not shown) [VB, 3-{[(1,3-dihydroxypropan-2-yl)carbamoyl]methyl}-N,4-dimethyl-3,4-dihydro-2H-1,4-benzoxazine-6-carboxamide] | 1 | 0 | 0 | 1 | 8 | 0 | 598 | 9 | 2 | 98 | 9854 | 2 | 0 | 0.9 | 1.2 | 0.7
2 | O=C(CC1COc2ccc(C(=O)Nc3ccccc3)cc2N1)NC(CO)CO (stereo not shown) [VC, 3-{[(1,3-dihydroxypropan-2-yl)carbamoyl]methyl}-N-phenyl-3,4-dihydro-2H-1,4-benzoxazine-6-carboxamide] | 0 | 0 | 0 | 0 | 7 | 0 | 432 | 0 | 4 | 43 | 6524 | 0 | 0 | 0.3 | 0.8 | 1.2
3 | O=C(CC1COc2ccc(C(=O)NC3CCCCC3)cc2N1)NC(CO)CO (stereo not shown) [VE, N-cyclohexyl-3-{[(1,3-dihydroxypropan-2-yl)carbamoyl]methyl}-3,4-dihydro-2H-1,4-benzoxazine-6-carboxamide] | 0 | 3 | 0 | 0 | 7 | 0 | 587 | 0 | 0 | 87 | 4587 | 1 | 3 | 0.9 | 0.8 | 0.5
4 | CN1c2cc(C(=O)NC3CCCCC3)ccc2OCC1CC(=O)NC(CO)CO (stereo not shown) [VF, N-cyclohexyl-3-{[(1,3-dihydroxypropan-2-yl)carbamoyl]methyl}-4-methyl-3,4-dihydro-2H-1,4-benzoxazine-6-carboxamide] | 1 | 1 | 2 | 1 | 1 | 2 | 985 | 1 | 0 | 98 | 2365 | 3 | 1 | 1.5 | 2.5 | 1.5
5 | O=C(CC1COc2ccc(C(=O)NC3CCCC3)cc2N1)NC(CO)CO (stereo not shown) [VG, N-cyclopentyl-3-{[(1,3-dihydroxypropan-2-yl)carbamoyl]methyl}-3,4-dihydro-2H-1,4-benzoxazine-6-carboxamide] | 1 | 1 | 2 | 1 | 1 | 2 | 657 | 8 | 0 | 67 | 3654 | 3 | 1 | 1.5 | 0.8 | 2.4
6 | CN1c2cc(C(=O)NC3CCCC3)ccc2OCC1CC(=O)NC(CO)CO (stereo not shown) [VH, N-cyclopentyl-3-{[(1,3-dihydroxypropan-2-yl)carbamoyl]methyl}-4-methyl-3,4-dihydro-2H-1,4-benzoxazine-6-carboxamide] | 1 | 2 | 3 | 1 | 2 | 3 | 658 | 4 | 0 | 68 | 6541 | 2 | 2 | 0.9 | 1.2 | 0.7
7 | CN1c2cc(C(N)=O)ccc2OCC1CC(=O)NC(CO)CO (stereo not shown) [VJ, 3-{[(1,3-dihydroxypropan-2-yl)carbamoyl]methyl}-4-methyl-3,4-dihydro-2H-1,4-benzoxazine-6-carboxamide] | 1 | 0 | 0 | 14 | 8 | 0 | 456 | 0 | 0 | 56 | 1351 | 2 | 0 | 0.3 | 0.8 | 1.2

Reference: patent US11013235B2 (priority 2015, dated 2021)
